Test results published in patent US20180201592A1, “2-AMINO-1,3,4-THIADIAZINE AND 2-AMINO-1,3,4-OXADIAZINE BASED ANTIFUNGAL AGENTS” (F2G Limited, priority 2015, published 2018).
Values after ≈ are worked out from the molar mass of the structure shown. Where two headings read alike, the source gives them in different places.

What was measured:
Aspergillus fumigatus = assay: Minimum inhibitory concentration, YAG medium; assay type: cell-based; conditions: banded MIC grade; for MIC: Aspergillus fumigatus, YAG media
Procedure: (§1) Between 1 and 5 mgs of compound were accurately weighed out into a sterile Eppendorf tube. The compound was dissolved in DMSO to give a solution containing 5 mg/mL. Tubes were stored at −20° C. until required.
(§2) On the day of testing thawed solutions were vortex mixed to ensure homogeneity. 30 μL of solution was removed and added to 570 μL of sterile water in a separate sterile Eppendorf. The thoroughly mixed solution was used to prepare a series of doubling dilutions in water, in a deep well plate. Thirteen replicate plates were prepared using a Minitrak by aspirating 20 μL from each well into eleven clear polystyrene 96 well plates.
(§3) Spores of Aspergillus spp. (Aspergillus fumigatus [two strains], Aspergillus terreus [two strains], Aspergillus niger and Aspergillus flavus) were harvested from cultures grown on Sabarauds agar for 5 days, and resuspended in PBS/Tween 80 to approx 1×10^7 cfu/mL. Each organism suspension was diluted in YAG medium (1% glucose, 1% ammonium chloride and 0.5% yeast extract) to 0.5-2×10^4cfu/mL. 80 μL of an organism suspension was added to each well of the plate containing drug dilutions.
(§4) This typically produced MIC plates with a drug range 50-0.05 mg/L and organism inocula of 1-2×10^4 cfu/mL for Aspergillus spp. All plates were incubated for 24 hrs at 35° C. Growth was assessed by monitoring the optical density at 485 nm for each well. The MIC of a compound is the lowest drug concentration that inhibits growth of an organism by >70% compared with a drug free control. MICs are recorded as mg/L. In cases where the MIC of an organism is […] the MIC is repeated using a concentration range of 0.5-0.0005 mg/L.

A. fumigatus 210 = assay: Minimum inhibitory concentration, YAG medium; assay type: cell-based, Aspergillus fumigatus; conditions: banded MIC grade; for MIC: Aspergillus fumigatus, 210, YAG media
Procedure: as §1, §2, §3, §4

A. terreus 49 = assay: Minimum inhibitory concentration, YAG medium; assay type: cell-based, Aspergillus terreus; conditions: banded MIC grade; for MIC: Aspergillus terreus, 49, YAG media
Procedure: (§5) The compound was dissolved in DMSO to give a solution containing 5 mg/mL. Tubes were stored at −20° C. until required. On the day of testing thawed solutions were vortex mixed to ensure homogeneity. 30 μL of solution was removed and added to 570 μL of sterile water in a separate sterile Eppendorf. The thoroughly mixed solution was used to prepare a series of doubling dilutions in water, in a deep well plate. Thirteen replicate plates were prepared using a Minitrak by aspirating 20 μL from each well into eleven clear polystyrene 96 well plates. Spores of Aspergillus spp. […] All plates were incubated for 24 hrs at 35° C. Growth was assessed by monitoring the optical density at 485 nm for each well. […] MICs are recorded as mg/L.

Aspergillus flavus = assay: Minimum inhibitory concentration, YAG medium; assay type: cell-based; conditions: banded MIC grade; for MIC: Aspergillus flavus, YAG media
Procedure: as §5

Aspergillus niger = assay: Minimum inhibitory concentration, YAG medium; assay type: cell-based; conditions: banded MIC grade; for MIC: Aspergillus niger, YAG media
Procedure: as §5

Aspergillus terreus = assay: Minimum inhibitory concentration, YAG medium; assay type: cell-based; conditions: banded MIC grade; for MIC: Aspergillus terreus, YAG media
Procedure: as §5

C. albicans = assay: Minimum inhibitory concentration, RPMI medium; assay type: cell-based; conditions: banded MIC grade; for MIC: Candida albicans, RPMI media
Procedure: as §5, with “Assays were also performed in RPMI medium (Roswell Park Memorial Media 1640). To perform MIC tests in this medium, dilutions” for “Spores”, “compounds are prepared in microtitre plates as described above.” for “Aspergillus spp.”, “24-48” for “24”, “The following organisms were tested: […]” for “MICs are recorded as mg/L.”

C. parapsilosis = assay: Minimum inhibitory concentration, RPMI medium; assay type: cell-based; conditions: banded MIC grade; for MIC: Lodderomyces parapsilosis, RPMI media
Procedure: as §5, with “Assays were also performed in RPMI medium (Roswell Park Memorial Media 1640). To perform MIC tests in this medium, dilutions” for “Spores”, “compounds are prepared in microtitre plates as described above.” for “Aspergillus spp.”, “24-48” for “24”, “The following organisms were tested: […]” for “MICs are recorded as mg/L.”

C. tropicalis = assay: Minimum inhibitory concentration, RPMI medium; assay type: cell-based; conditions: banded MIC grade; for MIC: Candida tropicalis, RPMI media
Procedure: as §5, with “Assays were also performed in RPMI medium (Roswell Park Memorial Media 1640). To perform MIC tests in this medium, dilutions” for “Spores”, “compounds are prepared in microtitre plates as described above.” for “Aspergillus spp.”, “24-48” for “24”, “The following organisms were tested: […]” for “MICs are recorded as mg/L.”

[1] = read-out: MIC grade C. ALBICANS
[2] = read-out: MIC grade, C. ALBICANS, RPMI media
[3] = read-out: MIC grade C. PARAPSILOSIS
[4] = read-out: MIC grade, C. PARAPSILOSIS, RPMI media

Row | Compound | MIC (Aspergillus fumigatus) [µg/mL] | MIC (A. fumigatus 210) [µg/mL] | MIC (A. terreus 49) [µg/mL] | MIC (Aspergillus flavus) [µg/mL] | MIC (Aspergillus niger) [µg/mL] | MIC (Aspergillus terreus) [µg/mL] | MIC (C. albicans; [1]) [µg/mL] | MIC (C. albicans; [2]) [µg/mL] | MIC (C. parapsilosis; [3]) [µg/mL] | MIC (C. parapsilosis; [4]) [µg/mL] | MIC (C. tropicalis) [µg/mL] | MIC grade, A. FUMIGATUS, YAG media (Aspergillus fumigatus) | MIC grade, A. FUMIGATUS 210, YAG media (A. fumigatus 210) | MIC grade, A. TERREUS 49, YAG media (A. terreus 49) | MIC grade, A. FLAVUS, YAG media (Aspergillus flavus) | MIC grade, A. NIGER, YAG media (Aspergillus niger) | MIC grade, A. TERREUS, YAG media (Aspergillus terreus) | MIC grade, C. ALBICANS, RPMI media (C. albicans) | MIC grade, C. PARAPSILOSIS, RPMI media (C. parapsilosis) | MIC grade, C. TROPICALIS, RPMI media (C. tropicalis)
1 | CN1N=C(N)SC=C1c1cc2ccccc2o1 [5-(benzofuran-2-yl)-4-methyl-1,3,4-thiadiazin-2-amine] | 1 to 5 (≈ 4.08 to 20.4 µM) | 0.2 to 1 (≈ 0.815 to 4.08 µM) | 0.2 to 1 (≈ 0.815 to 4.08 µM) | 1 to 5 (≈ 4.08 to 20.4 µM) | 1 to 5 (≈ 4.08 to 20.4 µM) | 0.2 to 1 (≈ 0.815 to 4.08 µM) | 5 to 20 (≈ 20.4 to 81.5 µM) | ≥ 20 | 5 to 20 (≈ 20.4 to 81.5 µM) | ≥ 20 | ≥ 20 |  |  |  |  |  |  |  |  | 
2 | COCCCCCC1=NN=C(N)SC1 |  |  |  |  |  |  |  |  |  |  |  | 4 (4: <0.2 mg/L) | 4 (4: <0.2 mg/L) | 4 (4: <0.2 mg/L) | 4 (4: <0.2 mg/L) | 4 (4: <0.2 mg/L) | 4 (4: <0.2 mg/L) | 4 (4: <1 mg/L) | 4 (4: <1 mg/L) | 3 (3: 1-5 mg/L)
3 | CCCCc1ccc(OCCCCCC2=NN=C(N)SC2)cc1 |  |  |  |  |  |  |  |  |  |  |  | 1 (1: ≥5 mg/L) | 2 (2: 1-5 mg/L) | 2 (2: 1-5 mg/L) | 2 (2: 1-5 mg/L) | 3 (3: 0.2-1 mg/L) | 2 (2: 1-5 mg/L) | 2 (2: 5-20 mg/L) | 3 (3: 1-5 mg/L) | 2 (2: 5-20 mg/L)
4 | NC1=NN=C(c2ccccn2)CS1 |  |  |  |  |  |  |  |  |  |  |  | 1 (1: ≥5 mg/L) | 1 (1: ≥5 mg/L) | 1 (1: ≥5 mg/L) | 1 (1: ≥5 mg/L) | 2 (2: 1-5 mg/L) | 1 (1: ≥5 mg/L) | 1 (1: ≥20 mg/L) | 1 (1: ≥20 mg/L) | 1 (1: ≥20 mg/L)
5 | N#Cc1ccc(COCCC2=NN=C(N)SC2)cc1 |  |  |  |  |  |  |  |  |  |  |  | 4 (4: <0.2 mg/L) | 4 (4: <0.2 mg/L) | 4 (4: <0.2 mg/L) | 3 (3: 0.2-1 mg/L) | 4 (4: <0.2 mg/L) | 4 (4: <0.2 mg/L) | 2 (2: 5-20 mg/L) | 2 (2: 5-20 mg/L) | 1 (1: ≥20 mg/L)
6 | COc1ccc(COCCC2=NN=C(N)SC2)cc1 |  |  |  |  |  |  |  |  |  |  |  | 3 (3: 0.2-1 mg/L) | 3 (3: 0.2-1 mg/L) | 3 (3: 0.2-1 mg/L) | 3 (3: 0.2-1 mg/L) | 3 (3: 0.2-1 mg/L) | 3 (3: 0.2-1 mg/L) | 2 (2: 5-20 mg/L) | 3 (3: 1-5 mg/L) | 2 (2: 5-20 mg/L)
7 | NC1=NN=C(c2cccc(Cl)c2)CS1 |  |  |  |  |  |  |  |  |  |  |  | 1 (1: ≥5 mg/L) | 1 (1: ≥5 mg/L) | 1 (1: ≥5 mg/L) | 1 (1: ≥5 mg/L) | 1 (1: ≥5 mg/L) | 1 (1: ≥5 mg/L) | 1 (1: ≥20 mg/L) | 1 (1: ≥20 mg/L) | 1 (1: ≥20 mg/L)
8 | CCCCOc1ccc(C2=NN=C(N)SC2)cc1 |  |  |  |  |  |  |  |  |  |  |  | 3 (3: 0.2-1 mg/L) | 3 (3: 0.2-1 mg/L) | 1 (1: ≥5 mg/L) | 3 (3: 0.2-1 mg/L) | 3 (3: 0.2-1 mg/L) | 3 (3: 0.2-1 mg/L) | 1 (1: ≥20 mg/L) | 1 (1: ≥20 mg/L) | 1 (1: ≥20 mg/L)
9 | COCCCC1=NN=C(N)SC1 |  |  |  |  |  |  |  |  |  |  |  | 4 (4: <0.2 mg/L) | 4 (4: <0.2 mg/L) | 4 (4: <0.2 mg/L) | 4 (4: <0.2 mg/L) | 4 (4: <0.2 mg/L) | 3 (3: 0.2-1 mg/L) | 3 (3: 1-5 mg/L) | 3 (3: 1-5 mg/L) | 2 (2: 5-20 mg/L)
10 | CN1N=C(N)SC=C1c1ccc(C#N)cc1 [4-(2-amino-4-methyl-1,3,4-thiadiazin-5-yl)benzonitrile] | 0.2 to 1 (≈ 0.868 to 4.34 µM) | < 0.2 | < 0.2 | < 0.2 | < 0.2 | < 0.2 | < 1 | 1 to 5 (≈ 4.34 to 21.7 µM) | 1 to 5 (≈ 4.34 to 21.7 µM) | 1 to 5 (≈ 4.34 to 21.7 µM) | 5 to 20 (≈ 21.7 to 86.8 µM) |  |  |  |  |  |  |  |  | 
11 | CN1N=C(N)SC=C1c1ccc(Cl)cc1 [5-(4-chlorophenyl)-4-methyl-1,3,4-thiadiazin-2-amine] | < 0.2 | < 0.2 | < 0.2 | < 0.2 | < 0.2 | < 0.2 | 1 to 5 (≈ 4.17 to 20.9 µM) | 1 to 5 (≈ 4.17 to 20.9 µM) | < 1 | < 1 | 5 to 20 (≈ 20.9 to 83.4 µM) |  |  |  |  |  |  |  |  | 
12 | Cc1ccc(C2=NN=C(N)SC2)cc1 |  |  |  |  |  |  |  |  |  |  |  | 3 (3: 0.2-1 mg/L) | 3 (3: 0.2-1 mg/L) | 3 (3: 0.2-1 mg/L) | 3 (3: 0.2-1 mg/L) | 3 (3: 0.2-1 mg/L) | 2 (2: 1-5 mg/L) | 1 (1: ≥20 mg/L) | 2 (2: 5-20 mg/L) | 1 (1: ≥20 mg/L)
13 | CC(C)OCCC1=NN=C(N)SC1 |  |  |  |  |  |  |  |  |  |  |  | 4 (4: <0.2 mg/L) | 1 (1: ≥5 mg/L) | 2 (2: 1-5 mg/L) | 1 (1: ≥5 mg/L) | 1 (1: ≥5 mg/L) | 2 (2: 1-5 mg/L) | 1 (1: ≥20 mg/L) | 3 (3: 1-5 mg/L) | 1 (1: ≥20 mg/L)
14 | NC1=NN=C(CCOC2CCCCC2)CS1 |  |  |  |  |  |  |  |  |  |  |  | 2 (2: 1-5 mg/L) | 1 (1: ≥5 mg/L) | 2 (2: 1-5 mg/L) | 2 (2: 1-5 mg/L) | 2 (2: 1-5 mg/L) | 2 (2: 1-5 mg/L) | 1 (1: ≥20 mg/L) | 2 (2: 5-20 mg/L) | 1 (1: ≥20 mg/L)
15 | CC(C)OC(=O)CC1=NN=C(N)SC1 |  |  |  |  |  |  |  |  |  |  |  |  |  |  |  |  |  | 1 (1: ≥20 mg/L) | 2 (2: 5-20 mg/L) | 1 (1: ≥20 mg/L)
